How the values were obtained:
[1] = Order parameter in liquid crystal medium E43; format: physicochemical; conditions: E43, 20° C., Table 4
Procedure: (§1) In order to provide maximum contrast between the two states it is important that the guest molecules adopt as closely as possible the time averaged orientation of the host, however this is achieved only to a limited degree because of random thermal fluctuations. The degree to which the orientation varies from the ideal is measured by a quantity known as the order parameter S which is given by the following equation: […]
where cos^2 θ is a time averaged term and θ is the instantaneous angular orientation of the molecules with respect to the time averaged orientation of the host molecules.

[2] = Absorption maximum in liquid crystal medium E43; format: physicochemical; conditions: E43, 20° C., Table 4
Text: (§15) Detection was by means of a u.v. source (254 nm) and samples, corresponding to all the peaks in the chromatogram, were collected.

[3] = Order parameter in other liquid crystal media (hosts) / liquid crystal materials; format: physicochemical; conditions: for Order Parameter: 20° C.
Procedure: as §1
where cos^2 θ is a time averaged term and θ is the instantaneous angular orientation of the molecules with respect to the time averaged orientation of the host molecules. The determination of the value of the order parameter S is well understood in the art, see for example the paper, "A new absorptive mode reflective liquid crystal display device", by D. L. White and G. N. Taylor in the Journal of Applied Physics, 1974, 45, pages […] to 4723.
(§2) The properties of some of the dyes described in the Examples were also measured in other liquid crystal media (hosts) at 20° C., unless otherwise stated, and the results are set out in Table 5.
(§3) The liquid crystal materials referred to in Table 5 as Hosts 1 to 12 have the following compositions:
(§4) Host 1 is the liquid crystal material E7, available from BDH Chemicals Ltd, which includes the compounds:
(§5) Host 2 is the liquid crystal material ZLI 1132, available from E Merck & Co, which includes the following compounds:
(§6) Host 3 is the liquid crystal material ZLI 1695, available from E Merck & Co, Darmstadt, West Germany. This has a clearing point (nematic to isotropic transition temperature) of 72° C.
(§7) Host 4 is a mixture of alkyl-cyanophenyl-dioxanes containing n-propyl, n-pentyl and n-heptyl chains.
(§8) Host 5 is the liquid crystal material ZLI 1565, available from E Merck & Co. This has a clearing point of 85° C.
(§9) Host 6 is the liquid crystal material ZLI 1624, available from E Merck & Co. This has a clearing point of 87° C.
(§10) Host 8 is the liquid crystal material RO-TN 430 available from Hoffmann La Roche Co. This has a clearing point of 69° C.
(§11) Host 9 is a mixed bicyclo-octane liquid crystal material containing the following compounds:
(§12) Host 10 is a mixture of liquid crystal materials based mainly on cyanobiphenyls and available from BDH Chemicals Ltd under the name E61.
(§13) Host 11 is a mixture of liquid crystal materials based mainly on cyanobiphenyls and available from BDH Chemicals Ltd under the name E49.
(§14) Host 12 is a mixture of fluorobicyclo(2,2,2)octane esters having negative anisotropy and containing a mixture of two compounds of the following formula: […]

[4] = Molar extinction coefficient of the dye in liquid crystal material; format: physicochemical
Text: Solubility is, however, only one of the factors affecting the achievement of good contrast in a liquid crystal display, another factor is the extinction coefficient of the dye in the liquid crystal material. One useful indication of the ability of a dye to give good contrast is the product of the molar extinction coefficient and the solubility (in moles/liter).

[5] = Solubility in other liquid crystal media (hosts) / liquid crystal materials; format: physicochemical
Procedure: as §2, §3, §4, §5, §6, §7, §8, §9, §10, §11, §12, §13, §14

[6] = Solubility in liquid crystal material E43; conditions: E43, 20° C., HPLC fractions, Table 3
Procedure: The solubility of the product was measured in liquid crystal material E43 marketed by BDH Chemicals Limited of Broom Road, Poole, Dorset, England.
as §15

[7] = Molar extinction coefficient in chloroform; format: physicochemical; conditions: 592 nm
Procedure: To a mixture of 9.4 g of 2,7-di-n-pentyl-4,5-dinitrochrysazin from Example 25(b) in 200 ml of pyridine at 20° C. there was added a solution of 2.2 ml of thiophenol in 50 ml of pyridine. The colour of the mixture gradually changed from orange-brown to red and after 2 hours at 20° C. was drowned into water, filtered, washed successively with water and methanol and dried to yield 9.5 g of product (88% theory). The structure was confirmed by mass spectrometry and elemental analysis, C=67.5 (67.5) H=5.8 (5.8) S=6.7 (6.0) and N=3.0 (2.7).
To a mixture of 1.7 ml of 4-t-butylphenylmercaptan and 0.4 g of KOH in 50 ml of isopropanol at 60° C. was added 3.7 g of the product of Example 25(c) and the temperature raised to 80° C. for 1.5 hour. It was then cooled to room temperature, filtered, washed successively with isopropanol and methanol and dried to give 3.5 g of product. After recrystallisation from petroleum ether, the structure was confirmed by mass spectrometry and elemental analysis, C=73.0 (73.6) H=6.5 (6.8) S=9.1 (9.8).
The process of Example 25(c) was repeated using 9.6 g of 2,7-n-heptyl-4,5-dinitrochrysazin in place of the 9.4 g of 2,7-di-n-pentyl-4,5-dinitrochrysazin. The structure was confirmed by mass spectrometry.
The process of Example 25(d) was repeated using 3.8 g of 2,7-di-n-heptyl-4-phenylthio-5-nitrochrysazin in place of the 3.7 g of 2,7-di-n-pentyl-4-phenylthio-5-nitrochrysazin. After recrystallisation from petroleum ether, the structure was confirmed by mass spectrometry.

[8] = prior-art symmetrical dyes; cited from earlier work
[9] = prior-art symmetrical dyes; cited from earlier work; remark: listed apart in the source
[10] = prior-art symmetrical dyes; cited from earlier work; remark: listed apart in the source

CC(C)(C)c1ccc(Sc2cccc3c2C(=O)c2cccc(Sc4ccccc4)c2C3=O)cc1 [Example 11, 1-phenylthio-5-(4-t-butylphenylthio)anthraquinone]
Order Parameter [1]: 0.79 | λmax [2]: 464 nm | Order Parameter ([3]; Host 1 (E7)): 0.73 | Order Parameter ([3]; Host 2 (ZLI 1132)): 0.79 | Order Parameter ([3]; Host 3 (ZLI 1695)): 0.81 | Order Parameter ([3]; Host 4 (alkyl-cyanophenyl-dioxanes mixture)): 0.74 | Order Parameter ([3]; Host 9 (mixed bicyclo-octane)): 0.81 | Order Parameter ([3]; Host 10 (E61)): 0.78 | Order Parameter ([3]; Host 11 (E49)): 0.78 | Order Parameter ([3]; Host 12 (fluorobicyclo(2,2,2)octane esters)): 0.77 | molar extinction coefficient [4]: 11,000 cm^2.moles^-1 | Solubility ([5]; Host 2 (ZLI 1132), 20° C.): 4.0% | Solubility ([5]; Host 3 (ZLI 1695), 20° C.): 2.5% | Solubility ([5]; Host 10 (E61), -2° C.): 4.0% | Solubility ([5]; Host 11 (E49), 20° C.): > 5.0% | Solubility ([5]; Host 11 (E49), -2° C.): 4.4% | Solubility ([5]; Host 12 (fluorobicyclo(2,2,2)octane esters), 20° C.): 2.0%

bis-(phenylthio)-bis-(t-butylphenylthio)AQ [Fraction 3]
Solubility [6]: < 0.5%

CCCCCCCc1cc(Sc2ccccc2)c2c(c1O)C(=O)c1c(O)c(CCCCCCC)cc(Sc3ccc(C(C)(C)C)cc3)c1C2=O [26(d), 2,7-Di-n-heptyl-4-phenylthio-5-(4-t-butylphenylthio)chrysazin]
Order Parameter [1]: 0.78 | λmax [2]: 592 nm | order parameter in liquid crystal materials (in words) ([3]; general statement): high | solubility in liquid crystal materials (in words) ([5]; general statement): particularly good | molar extinction coefficient [7]: 19,650

O=C1c2cccc(Sc3ccccc3)c2C(=O)c2cccc(Sc3ccccc3)c21 [1,5-bis(phenylthio)anthraquinone]
order parameters (in words) [8]: high | stability (in words) [9]: adequate | solubility in the liquid crystal materials (in words) [10]: insufficient for practical purposes
